Values after ≈ are worked out from the molar mass of the structure shown.
How the values were obtained:
Format in all cases: functional
Staphylococcus aureus [1] = experiment: Antibacterial activity against methicillin-resistant Staphylococcus aureus ATCC523512 assessed as bacterial growth inhibition after 24 hrs by broth dilution method; details: ATCC523512, 24 h
Staphylococcus aureus [2] = experiment: Antibacterial activity against methicillin-resistant Staphylococcus aureus ATCC51033 assessed as bacterial growth inhibition after 24 hrs by broth dilution method; details: ATCC51033, 24 h
Staphylococcus aureus [3] = experiment: Antibacterial activity against methicillin-resistant Staphylococcus aureus ATCC425055 assessed as bacterial growth inhibition after 24 hrs by broth dilution method; details: ATCC425055, 24 h
Staphylococcus aureus [4] = experiment: Antibacterial activity against methicillin-resistant Staphylococcus aureus ATCC510019 assessed as bacterial growth inhibition after 24 hrs by broth dilution method; details: ATCC510019, 24 h
Proteus vulgaris = experiment: Antibacterial activity against Proteus vulgaris ATCC49101 assessed as bacterial growth inhibition after 24 hrs by broth dilution method; details: ATCC49101, 24 h
Staphylococcus aureus [5] = experiment: Antibacterial activity against Staphylococcus aureus ATCC25923 assessed as bacterial growth inhibition after 24 hrs by broth dilution method; details: ATCC25923, 24 h
Staphylococcus aureus [6] = experiment: Antibacterial activity against methicillin-resistant Staphylococcus aureus ATCC515992 assessed as bacterial growth inhibition after 24 hrs by broth dilution method; details: ATCC515992, 24 h
Escherichia coli = experiment: Antibacterial activity against Escherichia coli ATCC25922 assessed as bacterial growth inhibition after 24 hrs by broth dilution method; details: ATCC25922, 24 h
Staphylococcus aureus [7] = experiment: Antibacterial activity against methicillin-resistant Staphylococcus aureus ATCC52056 assessed as bacterial growth inhibition after 24 hrs by broth dilution method; details: ATCC52056, 24 h
Bacillus subtilis = experiment: Antibacterial activity against Bacillus subtilis ATCC6633 assessed as bacterial growth inhibition after 24 hrs by broth dilution method; details: ATCC6633, 24 h
Staphylococcus aureus [8] = experiment: Antibacterial activity against methicillin-resistant Staphylococcus aureus ATCC43300 assessed as bacterial growth inhibition after 24 hrs by broth dilution method; details: ATCC43300, 24 h
Staphylococcus aureus [9] = experiment: Antibacterial activity against methicillin-resistant Staphylococcus aureus ATCC62202 assessed as bacterial growth inhibition after 24 hrs by broth dilution method; details: ATCC62202, 24 h
Staphylococcus aureus [10] = experiment: Antibacterial activity against methicillin-resistant Staphylococcus aureus ATCC513045 assessed as bacterial growth inhibition after 24 hrs by broth dilution method; details: ATCC513045, 24 h
Pseudomonas aeruginosa = experiment: Antibacterial activity against Pseudomonas aeruginosa ATCC2785 assessed as bacterial growth inhibition after 24 hrs by broth dilution method; details: ATCC2785, 24 h
[11] = system: Staphylococcus epidermidis; experiment: Antibacterial activity against Staphylococcus epidermidis ATCC12228 assessed as bacterial growth inhibition after 24 hrs by broth dilution method; details: ATCC12228, 24 h

Row | SMILES | MIC (Staphylococcus aureus [1]) [µg/mL] | MIC (Staphylococcus aureus [2]) [µg/mL] | MIC (Staphylococcus aureus [3]) [µg/mL] | MIC (Staphylococcus aureus [4]) [µg/mL] | MIC (Proteus vulgaris) [µg/mL] | MIC (Staphylococcus aureus [5]) [µg/mL] | MIC (Staphylococcus aureus [6]) [µg/mL] | MIC (Escherichia coli) [µg/mL] | MIC (Staphylococcus aureus [7]) [µg/mL] | MIC (Bacillus subtilis) [µg/mL] | MIC (Staphylococcus aureus [8]) [µg/mL] | MIC (Staphylococcus aureus [9]) [µg/mL] | MIC (Staphylococcus aureus [10]) [µg/mL] | MIC (Pseudomonas aeruginosa) [µg/mL] | MIC [11] [µg/mL]
1 | COC(=O)c1c(/C=C/c2ccc(Cl)cc2)cc(OC)c(CC=C(C)C)c1O | > 128 | > 128 | > 128 | > 128 | > 128 | > 128 | > 128 | > 128 | > 128 | > 128 | > 128 | 128 (≈ 331 µM) | > 128 | > 128 | 128 (≈ 331 µM)
2 | COC(=O)c1c(/C=C/c2ccc(OC)cc2)cc(OC)c(CC=C(C)C)c1O | 128 (≈ 335 µM) | > 128 | 128 (≈ 335 µM) | 128 (≈ 335 µM) | > 128 | 128 (≈ 335 µM) | > 128 | > 128 | 128 (≈ 335 µM) | > 128 | 128 (≈ 335 µM) | > 128 | 128 (≈ 335 µM) | > 128 | > 128
3 | COC(=O)c1c(/C=C/c2cc(OC)c(OC)c(OC)c2)cc(OC)c(CC=C(C)C)c1O | > 128 | 128 (≈ 289 µM) | > 128 | > 128 | > 128 | > 128 | 64 (≈ 145 µM) | > 128 | > 128 | > 128 | > 128 | > 128 | > 128 | > 128 | 64 (≈ 145 µM)
4 | COC(=O)c1c(/C=C/c2cccc(C#N)c2)cc(OC)c(CC=C(C)C)c1O | > 128 | > 128 | > 128 | > 128 | > 128 | > 128 | > 128 | > 128 | > 128 | > 128 | > 128 | 128 (≈ 339 µM) | > 128 | > 128 | 128 (≈ 339 µM)
5 | COC(=O)c1c(/C=C/c2ccc(C(F)(F)F)cc2)cc(OC)c(CC=C(C)C)c1O | 64 (≈ 152 µM) | > 128 | 64 (≈ 152 µM) | > 128 | > 128 | 64 (≈ 152 µM) | > 128 | > 128 | 128 (≈ 304 µM) | 128 (≈ 304 µM) | > 128 | 128 (≈ 304 µM) | 128 (≈ 304 µM) | > 128 | 64 (≈ 152 µM)
6 | COC(=O)c1c(/C=C/c2ccc(F)cc2F)cc(OC)c(CC=C(C)C)c1O | 64 (≈ 165 µM) | 128 (≈ 330 µM) | 128 (≈ 330 µM) | > 128 | > 128 | > 128 | > 128 | > 128 | 128 (≈ 330 µM) | 128 (≈ 330 µM) | > 128 | 64 (≈ 165 µM) | > 128 | > 128 | 64 (≈ 165 µM)
7 | COc1cc(C)c(C(=O)O)c(O)c1CC=C(C)C | 32 (≈ 128 µM) | 32 (≈ 128 µM) | 32 (≈ 128 µM) | 64 (≈ 256 µM) | > 128 | 32 (≈ 128 µM) | 32 (≈ 128 µM) | > 128 | 64 (≈ 256 µM) | 64 (≈ 256 µM) | 32 (≈ 128 µM) | 32 (≈ 128 µM) | 32 (≈ 128 µM) | > 128 | 64 (≈ 256 µM)
8 | COc1cc(/C=C/c2ccc(F)cc2)c(C(=O)O)c(O)c1CC=C(C)C | 4 (≈ 11.2 µM) | 1 (≈ 2.81 µM) | 2 (≈ 5.61 µM) | 1 (≈ 2.81 µM) | > 64 | 8 (≈ 22.4 µM) | 8 (≈ 22.4 µM) | > 128 | 1 (≈ 2.81 µM) | 1 (≈ 2.81 µM) | 4 (≈ 11.2 µM) | 1 (≈ 2.81 µM) | 8 (≈ 22.4 µM) | > 64 | 4 (≈ 11.2 µM)
9 | COc1cc(/C=C/c2ccc(Cl)cc2)c(C(=O)O)c(O)c1CC=C(C)C | 4 (≈ 10.7 µM) | 0.5 (≈ 1.34 µM) | 4 (≈ 10.7 µM) | 1 (≈ 2.68 µM) | > 64 | 8 (≈ 21.5 µM) | 4 (≈ 10.7 µM) | 128 (≈ 343 µM) | 2 (≈ 5.36 µM) | 2 (≈ 5.36 µM) | 2 (≈ 5.36 µM) | 2 (≈ 5.36 µM) | 4 (≈ 10.7 µM) | > 64 | 4 (≈ 10.7 µM)
10 | COc1ccc(/C=C/c2cc(OC)c(CC=C(C)C)c(O)c2C(=O)O)cc1 | 16 (≈ 43.4 µM) | 32 (≈ 86.9 µM) | 8 (≈ 21.7 µM) | 16 (≈ 43.4 µM) | > 64 | 32 (≈ 86.9 µM) | 16 (≈ 43.4 µM) | > 128 | 16 (≈ 43.4 µM) | 16 (≈ 43.4 µM) | 16 (≈ 43.4 µM) | 16 (≈ 43.4 µM) | 16 (≈ 43.4 µM) | > 64 | 32 (≈ 86.9 µM)
11 | COc1cc(/C=C/c2ccc(C)cc2)c(C(=O)O)c(O)c1CC=C(C)C | 32 (≈ 90.8 µM) | 16 (≈ 45.4 µM) | 16 (≈ 45.4 µM) | 32 (≈ 90.8 µM) | > 64 | 16 (≈ 45.4 µM) | 32 (≈ 90.8 µM) | > 128 | 16 (≈ 45.4 µM) | 16 (≈ 45.4 µM) | 32 (≈ 90.8 µM) | 32 (≈ 90.8 µM) | 8 (≈ 22.7 µM) | > 64 | 32 (≈ 90.8 µM)
12 | COc1cc(/C=C/c2cc(OC)c(OC)c(OC)c2)c(C(=O)O)c(O)c1CC=C(C)C | 16 (≈ 37.3 µM) | 64 (≈ 149 µM) | 16 (≈ 37.3 µM) | 16 (≈ 37.3 µM) | > 64 | 64 (≈ 149 µM) | 16 (≈ 37.3 µM) | > 128 | 32 (≈ 74.7 µM) | 16 (≈ 37.3 µM) | 16 (≈ 37.3 µM) | 32 (≈ 74.7 µM) | 16 (≈ 37.3 µM) | > 64 | 32 (≈ 74.7 µM)
13 | COc1cc(/C=C/c2cccc(C#N)c2)c(C(=O)O)c(O)c1CC=C(C)C | 2 (≈ 5.5 µM) | 2 (≈ 5.5 µM) | 1 (≈ 2.75 µM) | 2 (≈ 5.5 µM) | > 64 | 4 (≈ 11 µM) | 2 (≈ 5.5 µM) | > 128 | 4 (≈ 11 µM) | 16 (≈ 44 µM) | 8 (≈ 22 µM) | 0.5 (≈ 1.38 µM) | 4 (≈ 11 µM) | > 64 | 2 (≈ 5.5 µM)

From ChEMBL document CHEMBL3596195, “Novel cajaninstilbene acid derivatives as antibacterial agents” (Eur J Med Chem, 2015)
